Reference: patent publication EP3130339A1, “A COMPOUND FOR USE IN THE TREATMENT OF COMORBID ANXIETY DISORDER AND DEPRESSION DISORDER” (Aché Laboratórios Farmacêuticos S.A., priority 2015, dated 2017)

Tests used:
Format in all cases: in vivo
mice (RJ:NMRI, males) = assay: Bright/dark box test (clear/dark transition test); details: 30 minutes before the test; for Time spent in the clear compartment (seconds) (mean ± mean standard error): three-minute test
Protocol: This model, also known as clear/dark transition test, is characterized as a model of conflict, based on the natural tendency to explore new environments versus avoidance of doing so, due to the potential possibility of the presence of aversive stimuli. It is an animal model based on independent behavior of conditioning, therefore, there is no need of learning. In rodents, this model is grounded in their natural aversion to excessively clear environments. This aversion is measured from the ansiogenic component expressed by lower exposure of the animal to the clear compartment.
The method employed followed the procedure described by Crawley and Goodwin (Pharmacol. Biochem. Behav. 1981, 15, 695-699).
The animals were placed on the clear field of a box comprising two compartments, one being illuminate and open (25 x 27 x 27 cm) and the other being dark and close (20 x 27 x 27 cm). Data on the length of stay in each compartment were collected over the three-minute test.
This test aimed at obtaining a comparison profile of response of Compound (A) (3-(2-(-4-(2-methoxyphenyl)piperazin-1-yl)ethyl)quinazolin-4(3H)-one and Compound (B) 3-(2-(4-(2-cyanophenyl)piperazin-1-yl)ethyl)quinazolin-4(3H)-one with known compounds that act by different mechanisms. The comparative compounds were alprazolam (benzodiazepine), paroxetine (ISRS-type antidepressant), venlafaxine (IRSN-type antidepressant) and agomelatine (antidepressant that acts on melatonin and serotonin 5-HT2C receptor). The following doses were employed in this study: Table 1: Tested compounds, concentrations and route of administration.
In this blind study, ten mice (RJ:NMRI, males) were employed per group. Clobazam (12 mg/Kg, i.p. route) was administered under the same study conditions as the reference compound. All compounds were administered 30 minutes before the test.
The test data of the response of substances were analyzed comparing the groups treated with the control vehicle using one-way ANOVA followed by post-hoc analysis of Dunnett's test. The data of the reference substance obtained were analyzed using unpaired Student's t test.

Mice [1] = assay: Sphere hiding test; details: 1.0 mg/kg i.p.
Protocol: This test is based on the natural aversive behavior to glass and marble of rodents, where the presence of these objects triggers the action of burying (hiding). In this test, there are potential behavioral changes of medicines that may promote an ansiogenic or anxiolytic profile. This is determined by the increase or decrease of the behavior of hiding glass spheres ("marbles") that are randomly distributed on the surface of a box lined with sawdust. The increase of the number of covered balls is an indicative of anxiety, since it is supposed to represent a foreign agent to the animal, whose presence may pose threat. The administration of anxiolytics medicines decreases the number of spheres buried in non-sedative doses.
The method employed followed the procedure described by Broekkamp et al. (Eur. J. Pharmacol., 1986, 126, 223-229).
Mice were individually placed in transparent plastic cages (33 x 21 x 18 cm), with the floor covered by a 5 cm layer of sawdust and 25 glass spheres grouped in the center of the cage. The cage was covered with a perforated plastic cover. Each test cage, along with the glass spheres, were previously impregnated with "mouse odor", and a group of 10 mice was left inside for 15 minutes.
The number of glass spheres covered with sawdust (2/3 or more of the surface) was counted at the end of the 30 minutes of the test.
Each study group consisted of 12 mice. The test was partially blind (substances tested versus vehicle of the tested substances).
This test aimed at obtaining a comparison profile of response of Compound (A) (3-(2-(-4-(2-methoxyphenyl)piperazin-1-yl) ethyl) quinazolin-4 (3H) -one and Compound (B) (3-(2-(4-(2-cyanophenyl)piperazin-1-yl)ethyl)quinazolin-4(3H)-one) with known compounds that act by different mechanisms. The comparative compounds used were alprazolam (benzodiazepine) and paroxetine (ISRS-type antidepressant). These compounds were tested in the following doses: Table 3: Compounds tested, concentrations employed and route of administration.
Fluoxetine (ISRI antidepressant) was used as the positive control substance in the test, and was administered at 32 mg/kg (i.p.).
Quantitative data for the tested substances (number of glass spheres coated with sawdust) were evaluated by comparison with the treated groups using one-way ANOVA followed by planned comparisons against the appropriate vehicles. Data with fluoxetine were compared to the vehicle control using unpaired Student's t test.

Mice [2] = assay: Non-precipitated withdrawal test; details: mouse, in vivo, po
Text: This test aims at assessing how the sudden cessation of the administration of a medicine can be associated with the occurrence of withdrawal identifiable symptoms. The types of symptoms examined are feed changes, weight gain, body temperature and the occurrence of one or behavioral symptoms and others, such as tremor, teeth chattering, wet dog body-shaking, diarrhea or piloerection. The triggering of these signs is a first sign that the substance induces dependence after repeated administration.
The method employed followed the procedure described by Goudie and Leathley (Psychopharmacology 1991, 103: 529-537).
Two mice per cage received two administrations per day (approximately 10:00 hours and 16:00 hours) of the test substance continuously during 19 days (day 1 to day 19), with the last administration occurring next to 10:00 hours of the 20th day. Control animals received the same number of administrations of vehicle. […] During the discontinuation phase, all animals received administration of vehicle once a day.
Additionally to the observations made after discontinuing the medicines, the same measures were taken at day 1 and day 10 of treatment, in addition to the 3 last days (days 18 to 20) immediately prior to administration of the dose in the morning to assess the effects of medicines before discontinuation. After discontinuation, the first observation was performed 24 hours after the last administration and, from then on, every 24 hours (days 21 to 28).
For daily measurements, the animals were evaluated with respect to behavioral changes during 5 minutes (two animals simultaneously observed). Then, their body weights and rectal temperatures were measured. Then, they received the proper treatment and were returned to their cages.
The leftover food in their supporters was weighed immediately after all animals return to their cages (only in the mornings), and food consumption in the previous 24 hours was determined.
The body weights, feed consumption and rectal temperatures were also measured 24 hours before the first administration, as reference values. The treated groups were homogenized with regard to body weights on the day preceding the first administration of the tested substances.
Compound (A) (3-(2-(-4-(2-methoxyphenyl)piperazin-1-yl)ethyl)quinazolin-4 (3H)-one) was evaluated in 3 doses (3, 10 and 30 mg/kg) administered orally (p.o.) and compared to the vehicle (control group).
Chlordiazepoxide (64 mg/kg, p.o.) was administered under the same experimental conditions, and was employed as reference substance in the test.
Paroxetine (15 and 30 mg/kg p.o.) was administered under the same experimental conditions and was used as comparative substance.
The test was blinded. Data were analyzed by comparing substances with their control vehicles employing one-way ANOVA with the group as a factor followed by post-hoc Dunnett tests. Data with the reference substance were analyzed using unpaired Student's t test.

Fc1ccc([C@@H]2CCNC[C@H]2COc2ccc3c(c2)OCO3)cc1 [Paroxetine, paroxetine]
Time spent in the clear compartment compared to vehicle % (mice (RJ:NMRI, males); 4 mg/Kg i.p.): +15%
Time spent in the clear compartment (seconds) (mean ± mean standard error) (mice (RJ:NMRI, males); 4 mg/Kg i.p.): 84.6 ± 7.4 s
Time spent in the clear compartment compared to vehicle % (mice (RJ:NMRI, males); 8 mg/Kg i.p.): -6%
Time spent in the clear compartment (seconds) (mean ± mean standard error) (mice (RJ:NMRI, males); 8 mg/Kg i.p.): 69.3 ± 5.9 s
Time spent in the clear compartment compared to vehicle % (mice (RJ:NMRI, males); 16 mg/Kg i.p.): -13%
Time spent in the clear compartment (seconds) (mean ± mean standard error) (mice (RJ:NMRI, males); 16 mg/Kg i.p.): 63.8 ± 8.2 s
Number of Hidden Spheres Compared to vehicle control % (Mice [1]): -56%
Number of Hidden Spheres (mean ± mean standard error) (Mice [1]; 25 glass spheres, counted at the end of 30 minutes): 8,4 ± 2,3
withdrawal syndrome after an extended administration regimen (Mice [2]): induces mild withdrawal syndrome
amount of food consumed (Mice [2]; 30 mg/kg): significant increase in the amount of food consumed
body weight and food consumption (Mice [2]; 30 mg/kg): significantly induced weight loss and reduction of food consumption
